Holding throughout (type): biochemical
Test [1] addresses T1, BSL-B (Bacillus subtilis lipase B) (Bacillus subtilis, UniProt Q79F14).
T1 construct: gene estB
T1 sequence (Q79F14 29-210): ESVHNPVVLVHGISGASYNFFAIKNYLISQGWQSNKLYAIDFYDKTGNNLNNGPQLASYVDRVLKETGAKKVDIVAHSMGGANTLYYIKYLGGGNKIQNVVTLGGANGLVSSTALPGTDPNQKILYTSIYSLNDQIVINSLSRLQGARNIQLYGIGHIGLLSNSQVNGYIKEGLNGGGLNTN
Description: residual hydrolytic activity, p-nitrophenylpalmitate assay. The conditions noted are these: read-out: residual activity at 50 mM.

In test [2] the target is T2, BSL-A (Bacillus subtilis lipase A) (Bacillus subtilis, UniProt P37957).
T2 construct: gene estA
T2 sequence (P37957 32-212): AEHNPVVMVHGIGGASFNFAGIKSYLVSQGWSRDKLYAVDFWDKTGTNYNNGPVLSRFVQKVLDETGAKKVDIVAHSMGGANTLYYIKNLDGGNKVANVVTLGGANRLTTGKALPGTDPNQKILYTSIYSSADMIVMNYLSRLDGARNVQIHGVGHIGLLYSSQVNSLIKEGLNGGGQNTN
In words: p-nitrophenylpalmitate hydrolysis assay.

Test [3] deals with T1, BSL-B (Bacillus subtilis lipase B). In words: p-nitrophenylpalmitate hydrolysis assay.

These results are taken from publication PMC3049140, “Mechanism of acetaldehyde-induced deactivation of microbial lipases” (BMC Biochemistry, 2011).

Each structure is given as a SMILES string.

For `CC=CC=CC=O` [2,4-hexadienal], the remaining activity at 50000 µM in test [1] turned out to be 19%.

Turning to `CCCCCCCCCCCCCCCC(=O)Oc1ccc([N+](=O)[O-])cc1` [pNPP, p-nitrophenylpalmitate], the p-nitrophenylpalmitate hydrolysis assay entry is on record as “assayed for residual activity using the p-nitrophenylpalmitate assay” in test [2] and “residual enzyme activity determined with p-nitrophenylpalmitate as the substrate” in test [3].
